pIC50: −log10 of the molar value.
Assays:
TRPM7 [1] = target: T1, TRPM7 (Mus musculus, UniProt Q923J1); experiment: PI uptake cell death assay in TRPM7-expressing HEK-293 cells (type of assay from Example 1); assay type: cell-based, murine
T1 construct: expressed in transfected cells; host or cells: HEK-293 tSA (HEK-293T) cells, transient transfection with Lipofectamine 2000
Text: The TRPM7 channel provides a pathway for mono- and divalent cations into the cell, and is unique in that it contains a functional C-terminal α-kinase domain. […] The induction of chemical anoxia in host cells such as recombinant HEK293 cells can be used to activate TRPM7. This activation is detectable with the use measurements of cellular calcium accumulation. This is achievable with the use of a fluorescent calcium indicator. Alternatively, this activation can also be measured using radiolabelled Ca2+ (^45Ca^2+) as described previously by Sattler et al. (Sattler et al., 1998) and Aarts et al. (Aarts et al., 2003).
Hoechst 33342 was purchased as a 10 mg/mL solution in water (Molecular Probes Inc., Eugene, Oreg.). Propidium iodide (PI) was purchased as a powder and prepared by dissolving in PBS at 1 mg/mL. PI solutions were stored at 4° C. until use. Hoechst and PI were added directly to cell culture to 5 μg/mL and 10 μg/mL respectively. Cells were incubated at room temperature or at 37° C. for 10 minutes to allow for adequate uptake, and fluorescence observed using a NIKON Eclipse TE2000 inverted microscope and TE-FM Epi-Fluorescence attachment (Nikon Canada).
Untransfected cells or cells transfected with the TRPM7/pTracer or ΔPDZ/pTracer construct were plated onto 24-well plates, 24-hours post-transfection. Untransfected cells were plated at 0.75×10^6 cells/well and transfected cells at 1×10^6 cells/well. The plates were coated with poly-D-lysine to strengthen cell adhesion and to minimize cell loss during washes. Cells were loaded by incubation with 5 μM fluo-3 AM and 0.02% pluronic in HBSS at 37° C. for 30 minutes. Following loading, cells were washed with an aglycaemic HBSS containing, in mM: 20 N-methyl-D-glucamine (NMDG), 121 NaCl, 5 KCl, 10 HEPES acid, 10 HEPES-Na salt, 3 NaHCO3, 1 Na-pyruvate, and 1.8 CaCl2, pH adjusted to 7.4 with HCl. Calcium uptake, as assessed by fluo-3 fluorescence, was measured in response to 0, 5, 10, 15, 20, or 25 mM sodium cyanide (NaCN; Mallinckrodt Baker Inc., Phillipsburg, N.J.) dissolved in aglycaemic HBSS. A 250 mM NaCN stock was prepared in water and stored at room temperature for up to 2 weeks. Measurements of fluo-3 fluorescence were taken over a 2 hour period at 10 minutes intervals at room temperature (22-25° C.). Calcium uptake assays were performed 48 hours post-transfection.
Cell death, as assessed by PI uptake, was examined at the end of the 2 hour calcium uptake assay. Cells were stained with 10 μg/mL PI and PI fluorescence measured using the Fluoroskan microplate reader (λ excitation=590 nm, λ emission=630 nm) and accompanying Ascent software (Thermo Electron Corp.). To obtain a reading of maximal fluorescence (Fmax), 0.5% Triton X-100 was added to each well and allowed to incubate for 20 minutes. Cell death assays were performed 48 hours post-transfection.
Data was entered into Excel (Microsoft, Seattle, Wash.) or SigmaPlot (SPSS Inc., Chicago, Ill.) for analysis. Pooled data are presented as the mean of at least 3 separate experiments±sem. Calcium uptake is expressed as a fraction of baseline uptake: ΔFt=(Ft−Fo)/Fo where Ft is the fluorescence at time t, and Fo is the fluorescence at baseline. Cell death is expressed as a percentage of total cell death: cell death (%)=Ft/Fmax×100 where Ft is the fluorescence at time t and Fmax is the maximal fluorescence obtained by permeabilization with Triton X-100. Concentration-response curves were fit by nonlinear regression with a 4 parameter logistic curve represented by the following equation: y=min+{(max−min)/[1+(x/EC50)n]} where y is the response at concentration x, min is the minimal response, max is the maximal response, EC50 is the concentration required for half-maximal response, and n is the Hill slope. Statistical analysis of data was carried out with a two-tailed Student's t test, or a one-way analysis of variance (ANOVA) followed by post hoc pairwise multiple comparisons testing using the Holm-Sidak method, where appropriate. […]

TRPM7 ion channel = target: T2, TRPM7 ion channel (Mus musculus, UniProt Q923J1); experiment: Whole-cell patch clamp of TRPM7 currents in HEK293 cells; assay type: cell-based; conditions: value shown = concentration at which the compound significantly inhibits the ion channel
T2 construct: expressed in transfected cells; host or cells: TRPM7-tet-on HEK293 cells
T2 sequence (Q923J1 whole entry): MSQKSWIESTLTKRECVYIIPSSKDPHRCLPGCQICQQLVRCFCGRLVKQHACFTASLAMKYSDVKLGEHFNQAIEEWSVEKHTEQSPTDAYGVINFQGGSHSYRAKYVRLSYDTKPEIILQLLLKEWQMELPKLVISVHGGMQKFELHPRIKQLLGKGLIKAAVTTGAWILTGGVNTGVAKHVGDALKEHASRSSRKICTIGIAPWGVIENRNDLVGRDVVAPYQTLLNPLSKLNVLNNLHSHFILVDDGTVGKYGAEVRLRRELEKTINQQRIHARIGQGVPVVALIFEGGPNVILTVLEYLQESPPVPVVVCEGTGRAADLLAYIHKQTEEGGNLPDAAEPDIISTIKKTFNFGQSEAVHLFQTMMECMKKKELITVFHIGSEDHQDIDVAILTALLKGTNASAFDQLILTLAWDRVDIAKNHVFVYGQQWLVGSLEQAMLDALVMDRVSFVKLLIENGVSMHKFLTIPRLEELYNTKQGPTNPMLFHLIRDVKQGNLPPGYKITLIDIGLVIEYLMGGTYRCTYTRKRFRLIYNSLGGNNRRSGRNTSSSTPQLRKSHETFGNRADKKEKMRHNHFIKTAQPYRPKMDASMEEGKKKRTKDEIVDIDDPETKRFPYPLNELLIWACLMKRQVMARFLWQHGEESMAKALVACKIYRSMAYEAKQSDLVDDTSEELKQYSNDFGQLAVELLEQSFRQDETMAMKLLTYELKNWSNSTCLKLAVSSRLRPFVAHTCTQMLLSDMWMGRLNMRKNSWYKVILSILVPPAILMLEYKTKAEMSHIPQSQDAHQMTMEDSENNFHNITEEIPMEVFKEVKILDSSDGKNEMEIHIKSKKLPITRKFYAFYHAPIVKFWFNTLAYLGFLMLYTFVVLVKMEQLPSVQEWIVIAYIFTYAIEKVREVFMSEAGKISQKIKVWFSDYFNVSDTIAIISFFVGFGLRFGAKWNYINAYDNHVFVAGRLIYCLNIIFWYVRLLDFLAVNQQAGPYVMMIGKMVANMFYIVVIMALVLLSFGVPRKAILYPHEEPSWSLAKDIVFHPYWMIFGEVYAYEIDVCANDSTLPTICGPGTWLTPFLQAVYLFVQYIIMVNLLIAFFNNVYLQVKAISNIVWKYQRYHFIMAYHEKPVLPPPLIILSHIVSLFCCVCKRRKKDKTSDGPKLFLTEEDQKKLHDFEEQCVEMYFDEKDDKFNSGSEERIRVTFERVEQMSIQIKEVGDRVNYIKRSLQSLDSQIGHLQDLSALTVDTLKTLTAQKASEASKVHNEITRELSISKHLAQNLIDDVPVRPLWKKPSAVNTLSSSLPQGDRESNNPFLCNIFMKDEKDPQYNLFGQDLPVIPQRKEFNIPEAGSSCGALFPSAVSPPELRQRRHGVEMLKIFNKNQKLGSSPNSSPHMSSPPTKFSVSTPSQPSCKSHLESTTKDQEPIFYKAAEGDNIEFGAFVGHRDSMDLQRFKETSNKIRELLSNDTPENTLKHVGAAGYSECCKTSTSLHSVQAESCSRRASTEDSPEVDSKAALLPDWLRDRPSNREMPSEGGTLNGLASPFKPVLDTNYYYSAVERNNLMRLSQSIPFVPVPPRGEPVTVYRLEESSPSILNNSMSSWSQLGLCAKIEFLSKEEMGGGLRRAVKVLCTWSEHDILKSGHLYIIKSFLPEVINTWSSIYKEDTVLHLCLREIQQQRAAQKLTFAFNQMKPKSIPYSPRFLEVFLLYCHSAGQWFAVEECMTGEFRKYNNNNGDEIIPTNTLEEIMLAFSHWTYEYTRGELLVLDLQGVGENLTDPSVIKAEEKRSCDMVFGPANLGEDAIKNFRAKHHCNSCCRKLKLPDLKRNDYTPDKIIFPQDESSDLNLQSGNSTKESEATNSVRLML
Method: To further understand the structure function relationships between the TRPM7 inhibitors identified in the TRPM7-dependent HEK death assay, the activity of a subset of these inhibitors described herein were tested for their ability to inhibit TRPM7 currents in cell systems. Whole-cell patch clamp recordings were used essentially as described to test the TRPM7 inhibitors in HEK293 cells, H9c2 cardiomyocytes and cultured neurons. […] Those that provide >10% inhibition of TRPM7 channel activity in the HEK293 cell system were labeled with the concentration tested (generally 5 uM). Thus, the compounds in this table marked with such a value are able to block the activity gof the TRPM7 ion channel. FIGS. 2A-C provide an example of this for the TRPM7 inhibitor 399 (Structure 9). […] Numbers in brackets indicate the number of independent tests, and the bars represent the SEM.
Whole-cell currents were recorded using an Axopatch 1D or MultiClamp 700B amplifier and were digitized at 10 kHz and low-pass filtered at 2 kHz, at room temperature. pClamp10 software was used for data acquisition and analysis. Patch electrodes were pulled from Borosilicate glass and fire polished to a resistance of 2-4 MΩ. All drugs were administrated directly to cell bodies under recording through the fast exchange perfusion system.
The intracellular solution (ICS) contains (mM) 145 Cs-methanesulfonate, 8 NaCl, l MgCl2, 4.1 CaCl2, 10 EGTA, and 10 HEPES, 5 ATP, pH at 7.4, with 300-305 mOsm. The extracellular solution (ECS) contains (mM) 140 NaCl, 5 KCl, 2 CaCl2, 20 HEPES, and 10 glucose, pH at 7.4 and with 315-320 mOsm.
Voltage stimuli lasting 250 ms were delivered at 5-s intervals with voltage ramps ranging from −100 to +100 mV. The current values at −80 mV and +80 mV on I-V curve represent the measures of inward and outward current respectively.
(§1) Table X and FIGS. 7-51 show screening data for several additional compounds that are variants of M5, M6 or M21. The synthesis of compounds of Table X and FIGS. 7-51 is shown in Appendices A-C. The compounds shown in FIGS. 7-51 can be related to the appropriate row of Table X by the compound number shown in the figures and in the first column of Table X. The compounds in Table X other than M5, M6 and M21 themselves, are believed to be novel. The Table provides a number identifying the compound, its structurer, molecular weight and its cluster (i.e., whether the compound resembles M5, M6 or M21). The three columns relations to PI uptake describe the results of screening the compounds in the type of assay from Example 1. […] The last two columns show an effect on proliferation of Weri retinoblastoma or HeLa cervical cancer cells. Inhibition of proliferation is a measure of anti-neoplastic activity. […] If no data is shown, no test was performed.

cancer cell lines = experiment: Cell proliferation studies, cancer cell lines in general; assay type: cell-based; conditions: summary statement
Method: (§2) Cells were grown to 70% confluency, trypsinized, counted, and seeded in 96-well flat-bottom plates at a final concentration of 2.5×10^3-5.0×10^3 cells/well in growth media containing 5% FBS (Day 0). Other well sizes and cell densities were used successfully as well. Cells were allowed to incubate in growth media for 24 hours to allow for maximum adhesion. Treatment with the test agent began on Day 1 and continued for 72 hours either with or without retreatment. At the 72 hour time point, viable cell numbers are quantified by the CellTiter-Glo® cell viability assay as described above, or using standard MTT, SRB or BrDU assays. Experiments were repeated at least twice with the same concentrations to determine growth inhibitory activity. […] In an alternative format, this assay was used to screen potential TRPM7 inhibitory compounds at a fixed concentration, usually 5 or 10 uM. Alternatively, lower or higher concentrations were used. […] Thus, for the compounds in Table 1, all are potential anti-cancer agents. Some, like 399 and 509, are more general and may be effective against a wide range of cancers. Others, like 2785, are more specific and may be effective against a subset of cancers.
(§3) Data Collection—For the cell proliferation studies, data from each experiment was collected and expressed as % Cell Growth using the following calculation: % Cell Growth=(ftest/fvehicle)×100 Where ftest is the luminescent signal of the tested sample, and fvehicle is the luminescence of the vehicle in which the drug is dissolved (or appropriate measure for the other viability/proliferation measures). Dose response graphs and IC50 values were generated using standard software using the following variable slope equation: […]

[2] = test system: neurons, hepatocytes, cardiomyocytes, retina; experiment: Survival after anoxia in cells and tissues; assay type: cell-based; conditions: summary statement
TRPM7 [3] = target: TRPM7 (Homo sapiens, UniProt Q96QT4); conditions: Nadler et al., Jiang et al.; read-out: IC50 for inhibition of TRPM7; cited from earlier work
Chain of TRPM7 (Homo sapiens, UniProt Q96QT4) (Q96QT4 whole entry, species assumed): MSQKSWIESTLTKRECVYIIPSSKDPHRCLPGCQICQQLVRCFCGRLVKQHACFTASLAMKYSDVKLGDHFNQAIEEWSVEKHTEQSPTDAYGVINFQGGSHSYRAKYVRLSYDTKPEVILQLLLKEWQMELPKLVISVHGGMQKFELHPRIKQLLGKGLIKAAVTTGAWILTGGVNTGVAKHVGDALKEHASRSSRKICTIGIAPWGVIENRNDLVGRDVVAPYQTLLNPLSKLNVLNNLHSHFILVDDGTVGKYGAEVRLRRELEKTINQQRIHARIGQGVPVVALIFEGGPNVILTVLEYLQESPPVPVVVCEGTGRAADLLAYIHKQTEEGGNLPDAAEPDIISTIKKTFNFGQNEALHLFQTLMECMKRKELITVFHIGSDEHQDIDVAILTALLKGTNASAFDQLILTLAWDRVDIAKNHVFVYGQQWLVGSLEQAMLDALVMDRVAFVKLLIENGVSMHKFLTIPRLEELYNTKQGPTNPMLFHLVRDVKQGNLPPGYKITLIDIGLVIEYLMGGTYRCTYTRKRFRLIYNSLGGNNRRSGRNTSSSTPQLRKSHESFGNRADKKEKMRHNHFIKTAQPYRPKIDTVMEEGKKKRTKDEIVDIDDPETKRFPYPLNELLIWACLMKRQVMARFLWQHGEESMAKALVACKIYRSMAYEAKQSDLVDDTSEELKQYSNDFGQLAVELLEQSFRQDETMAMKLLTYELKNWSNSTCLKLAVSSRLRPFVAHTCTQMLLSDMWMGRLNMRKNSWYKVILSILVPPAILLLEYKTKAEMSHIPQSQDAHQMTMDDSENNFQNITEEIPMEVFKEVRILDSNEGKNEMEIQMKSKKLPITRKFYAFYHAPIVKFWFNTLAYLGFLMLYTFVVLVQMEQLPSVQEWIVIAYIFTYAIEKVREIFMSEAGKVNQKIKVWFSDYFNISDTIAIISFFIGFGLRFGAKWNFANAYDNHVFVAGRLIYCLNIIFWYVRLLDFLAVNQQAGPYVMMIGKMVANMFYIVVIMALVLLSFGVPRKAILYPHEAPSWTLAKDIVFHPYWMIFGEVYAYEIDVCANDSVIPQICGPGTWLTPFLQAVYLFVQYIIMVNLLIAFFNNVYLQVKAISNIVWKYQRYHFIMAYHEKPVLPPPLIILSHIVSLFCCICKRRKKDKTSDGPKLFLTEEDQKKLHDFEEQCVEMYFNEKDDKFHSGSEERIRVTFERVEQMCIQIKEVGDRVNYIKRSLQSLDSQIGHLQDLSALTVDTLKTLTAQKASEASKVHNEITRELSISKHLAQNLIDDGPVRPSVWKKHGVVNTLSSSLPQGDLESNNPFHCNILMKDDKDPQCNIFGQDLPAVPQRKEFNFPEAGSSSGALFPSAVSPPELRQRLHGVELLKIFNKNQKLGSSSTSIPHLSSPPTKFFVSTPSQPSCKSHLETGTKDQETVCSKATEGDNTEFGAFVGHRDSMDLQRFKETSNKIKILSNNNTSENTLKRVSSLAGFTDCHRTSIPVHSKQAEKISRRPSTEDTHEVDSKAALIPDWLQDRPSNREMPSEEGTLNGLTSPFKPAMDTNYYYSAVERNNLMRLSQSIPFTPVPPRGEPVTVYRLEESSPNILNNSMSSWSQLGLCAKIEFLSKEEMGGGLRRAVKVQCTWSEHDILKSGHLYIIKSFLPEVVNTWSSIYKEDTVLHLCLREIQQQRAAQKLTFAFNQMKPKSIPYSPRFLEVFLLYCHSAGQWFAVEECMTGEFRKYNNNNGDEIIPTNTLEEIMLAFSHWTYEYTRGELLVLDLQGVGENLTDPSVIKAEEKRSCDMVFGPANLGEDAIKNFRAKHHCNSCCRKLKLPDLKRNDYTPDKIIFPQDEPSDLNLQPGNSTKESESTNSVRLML

Weri cells = experiment: Cell proliferation assay, Weri retinoblastoma cells; assay type: cell-based
Method: as §2, §3, §1

[4] = Table X, the lower the number, the more potent in protecting against cell death
[5] = Table X, the lower the number, the more potent
[6] = Table Y, commercially available compounds

T1 sequence (Q923J1 whole entry): as the sequence (Q923J1 whole entry) above

SMILES: COc1cccc2c1CCNC2c1sc2ccccc2c1Cl (stereo not drawn) [Compound 121]
- Normalized ratio of PI uptake (5 μM) (TRPM7 [1]; [4]): 0.053
- Normalized ratio of PI uptake (10 μM) (TRPM7 [1]; [5]): 0.036
- IC50 (TRPM7 [1]; Table X): 1.4 µM
- TRPM7 current (TRPM7 ion channel): 5 μM (Those that provide >10% inhibition of TRPM7 channel activity in the HEK293 cell system were labeled with the concentration tested (generally 5 uM))

SMILES: Fc1cccc2c1CCNC2c1sc2ccccc2c1Cl (stereo not drawn) [Compound 123]
- Normalized ratio of PI uptake (5 μM) (TRPM7 [1]; [4]): 0.356
- Normalized ratio of PI uptake (10 μM) (TRPM7 [1]; [5]): 0.128
- IC50 (TRPM7 [1]; Table X): 4.18 µM
- TRPM7 current (TRPM7 ion channel): 5 μM (Those that provide >10% inhibition of TRPM7 channel activity in the HEK293 cell system were labeled with the concentration tested (generally 5 uM))

SMILES: Cc1c(Cc2ccc(Cl)c(Cl)c2)c(=O)oc2cc(O)cc(O)c12 [Compound 131]
- Normalized ratio of PI uptake (5 μM) (TRPM7 [1]; [4]): 0.29
- Normalized ratio of PI uptake (10 μM) (TRPM7 [1]; [5]): 0.03
- IC50 (TRPM7 [1]; Table X): 3.42 µM
- TRPM7 current (TRPM7 ion channel): 5 μM (Those that provide >10% inhibition of TRPM7 channel activity in the HEK293 cell system were labeled with the concentration tested (generally 5 uM))

SMILES: Cc1ccc2c(c1)CCCN2C(=O)c1sc2ccccc2c1Cl [Compound M5]
- inhibition of proliferation of cancer cell lines (cancer cell lines): effective in inhibiting proliferation of various cancer cell lines
- survival after anoxia [2]: effective in increasing survival after anoxia in neurons, hepatocytes, cardiomyoctes, and retina

SMILES: COc1cc2c(cc1OC)C(c1sc3ccccc3c1Cl)=NCC2 [Compound M6]
- inhibition of proliferation of cancer cell lines (cancer cell lines): effective in inhibiting proliferation of various cancer cell lines
- survival after anoxia [2]: effective in increasing survival after anoxia in neurons and cardiomyocytes

SMILES: [Mg+2] [Mg^2+, magnesium]
- pIC50 (TRPM7 [3]): ~3.22

SMILES: COc1ccccc1C(C)N(C)C(=O)c1cc2ccccc2s1 (stereo not drawn) [T6681713 #6, reference compound]
- Normalized ratio of PI uptake (5 μM) (TRPM7 [1]; [6]): 0.328
- Normalized ratio of PI uptake (10 μM) (TRPM7 [1]; [6]): 0.059
- IC50 (TRPM7 [1]; [6]): 5.48 µM
- inhibition at 5 µM (Weri cells): 9%
- inhibition at 10 µM (Weri cells): 33%

SMILES: COc1ccc2cc(C(=O)N(C)Cc3ccccc3N3CCCC3)[nH]c2c1 [T6899266 #9, reference compound]
- Normalized ratio of PI uptake (5 μM) (TRPM7 [1]; [6]): 0.029
- Normalized ratio of PI uptake (10 μM) (TRPM7 [1]; [6]): 0
- IC50 (TRPM7 [1]; [6]): 2.32 µM
- inhibition at 5 µM (Weri cells): 18%
- inhibition at 10 µM (Weri cells): 42%
